# From PMC5896380, “Selective imaging of cathepsin L in breast cancer by fluorescent activity-based probes” (Chemical Science, 2018)
# Non-standard residues stand in square brackets, D forms with d. *: point of attachment. Phe(F5) = N[C@@H](Cc1c(F)c(F)c(F)c(F)c1F)C(=O)O; Phe(2-Cl) = N[C@@H](Cc1ccccc1Cl)C(=O)O; Phe(3-F) = N[C@@H](Cc1cccc(F)c1)C(=O)O; ACC = NC(=O)Cc1cc(=O)oc2cc(N*)ccc12; hArg = N=C(N)NCCCC[C@H](N)C(=O)O; ClZ = O=C(OCc1ccccc1Cl)*; Mob = COc1ccc(C*)cc1; Meb = Cc1ccc(C*)cc1; OBn = c1ccc(CO*)cc1; Bn = c1ccc(C*)cc1
# Key:
# Type in all cases: biochemical
# cathepsin L = molecular target: T1, cathepsin L (Homo sapiens, UniProt P07711); assay: Kinetic parameters of ACC substrates with cathepsin L; conditions: for kcat/KM Cath-L: Fig. 5B, pH 5.5, 37 °C, cathepsin L 0.1–0.5 nM, triplicate, SD below 15%; for Km: read-out: KM Cat L
# T1 construct: made in house
# Procedure: (§1) All kinetic experiments were performed using fMax (Molecular Devices) and CLARIOStar (BMG LABTECH) spectrofluorimeters operating in kinetic mode using 96-well plates. ACC-labeled substrates were screened using 355 nm and 460 nm wavelengths (excitation and emission, respectively). […] The buffer was prepared at room temperature and the enzyme kinetic studies were performed at 37 °C.
# (§2) Classic substrate velocity plots were analyzed according to Michaelis–Menten kinetics and a detailed protocol for the determination of kinetic parameters for ACC-tagged substrates is found elsewhere.[56] […] Experiments were repeated at least three times and results are presented as an average. The SDs were below 15%.
# cathepsin V = molecular target: T2, cathepsin V (Homo sapiens, UniProt O60911); assay: Kinetic parameters of ACC substrates with cathepsin V; conditions: for kcat/KM Cath-V: Fig. 5B, pH 5.5, 37 °C, cathepsin V 10–20 nM, triplicate, SD below 15%; for kcat Cat V / kcat/KM Cat V / Km: Table S7, four independent experiments, S.D. below 15%; for Km: read-out: KM Cat V
# T2 construct: made in house
# Procedure: as §1, §2
# cathepsin B = molecular target: T3, cathepsin B (Homo sapiens, UniProt P07858); assay: Kinetic parameters of ACC substrates with cathepsin B; conditions: for kcat/KM Cath-B: Fig. 5B, pH 5.5, 37 °C, cathepsin B 4–15 nM, triplicate, SD below 15%; for kcat Cat B / kcat/KM Cat B / Km: Table S7, four independent experiments, S.D. below 15%; for Km: read-out: KM Cat B
# T3 construct: made in house
# Procedure: as §1, §2
# cathepsin K = molecular target: T4, cathepsin K (Homo sapiens, UniProt P43235); assay: Kinetic parameters of ACC substrates with cathepsin K; conditions: for kcat/KM Cath-K: Fig. 5B, pH 5.5, 37 °C, cathepsin K 5–20 nM, triplicate, SD below 15%
# T4 construct: made in house
# T4 sequence (P43235 115-329): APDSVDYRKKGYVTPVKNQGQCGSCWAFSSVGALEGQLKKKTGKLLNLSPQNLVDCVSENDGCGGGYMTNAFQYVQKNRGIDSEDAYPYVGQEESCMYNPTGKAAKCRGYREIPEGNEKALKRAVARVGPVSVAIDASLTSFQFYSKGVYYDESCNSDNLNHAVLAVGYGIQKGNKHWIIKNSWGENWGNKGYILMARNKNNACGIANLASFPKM
# Procedure: as §1, §2
# cathepsin S = molecular target: T5, cathepsin S (Homo sapiens, UniProt P25774); assay: Kinetic parameters of ACC substrates with cathepsin S; conditions: for kcat/KM Cath-S: Fig. 5B, pH 5.5, 37 °C, cathepsin S 5–20 nM, triplicate, SD below 15%; for kcat/KM Cat S: Table S7, four independent experiments, S.D. below 15%
# T5 construct: made in house
# Procedure: as §1, §2
# [1] = Table S7, four independent experiments, S.D. below 15%
# T5 sequence (P25774 115-331): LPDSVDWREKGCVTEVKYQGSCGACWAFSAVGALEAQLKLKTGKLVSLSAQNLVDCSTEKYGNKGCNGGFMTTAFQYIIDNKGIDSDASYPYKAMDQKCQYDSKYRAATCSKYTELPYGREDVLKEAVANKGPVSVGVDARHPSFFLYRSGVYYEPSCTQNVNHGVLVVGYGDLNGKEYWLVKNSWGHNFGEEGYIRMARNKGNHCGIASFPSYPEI
# T2 sequence (O60911 114-334): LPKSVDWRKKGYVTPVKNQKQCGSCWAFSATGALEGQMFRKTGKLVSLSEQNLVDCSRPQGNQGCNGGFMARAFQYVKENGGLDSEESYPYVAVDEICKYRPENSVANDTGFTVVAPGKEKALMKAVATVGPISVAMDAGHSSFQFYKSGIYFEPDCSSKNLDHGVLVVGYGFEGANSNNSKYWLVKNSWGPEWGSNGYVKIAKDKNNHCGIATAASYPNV
# T1 sequence (P07711 114-333): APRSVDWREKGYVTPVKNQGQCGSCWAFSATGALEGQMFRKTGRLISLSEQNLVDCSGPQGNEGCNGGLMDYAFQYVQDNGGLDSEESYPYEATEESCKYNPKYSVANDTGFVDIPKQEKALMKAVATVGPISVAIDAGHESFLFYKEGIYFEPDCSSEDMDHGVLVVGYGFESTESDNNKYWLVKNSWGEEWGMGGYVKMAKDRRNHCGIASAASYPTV
Substance,kcat/KM Cath-L (cathepsin L),kcat Cat L (cathepsin L; [1]),kcat/KM Cat L (cathepsin L; [1]),Km (cathepsin L; [1]),kcat/KM Cath-V (cathepsin V),kcat Cat V (cathepsin V),kcat/KM Cat V (cathepsin V),Km (cathepsin V),kcat/KM Cath-B (cathepsin B),kcat Cat B (cathepsin B),kcat/KM Cat B (cathepsin B),Km (cathepsin B),kcat/KM Cath-K (cathepsin K),kcat Cat K (cathepsin K; [1]),kcat/KM Cat K (cathepsin K; [1]),"Km (cathepsin K; Table S7, four independent experiments, S.D. below 15%, read-out: KM Cat K)",kcat/KM Cath-S (cathepsin S),kcat/KM Cat S (cathepsin S)
Ac-H[dV][Phe(F5)]C(Bn)-{ACC} (SMILES CC(=O)N[C@@H](Cc1c[nH]cn1)C(=O)N[C@@H](C(=O)N[C@@H](Cc1c(F)c(F)c(F)c(F)c1F)C(=O)N[C@@H](CSCc1ccccc1)C(=O)Nc1ccc2c(CC(N)=O)cc(=O)oc2c1)C(C)C),"732,900 M^-1s^-1",4.21 s⁻¹,"732,900 M-1s-1",5.67 µM,"1,250 M^-1s^-1",0.00971 s⁻¹,"1,250 M-1s-1",7.76 µM,"1,370 M^-1s^-1",0.0115 s⁻¹,"1,370 M-1s-1",8.19 µM,190 M⁻¹ s⁻¹,0.00221 s⁻¹,190 M⁻¹ s⁻¹,11.5 µM,< 10 M⁻¹ s⁻¹,< 10 M⁻¹ s⁻¹
Ac-His-DVal-Phe(F5)-Nle(OBzl)-ACC,"2,290,000 M^-1s^-1",,,,"3,820 M^-1s^-1",,,,"2,500 M^-1s^-1",,,,906 M⁻¹ s⁻¹,,,,508 M⁻¹ s⁻¹,
Ac-H[dV][Phe(F5)]E(OBn)-{ACC} (SMILES CC(=O)N[C@@H](Cc1c[nH]cn1)C(=O)N[C@@H](C(=O)N[C@@H](Cc1c(F)c(F)c(F)c(F)c1F)C(=O)N[C@@H](CCC(=O)OCc1ccccc1)C(=O)Nc1ccc2c(CC(N)=O)cc(=O)oc2c1)C(C)C),"599,800 M^-1s^-1",,,,710 M⁻¹ s⁻¹,,,,941 M⁻¹ s⁻¹,,,,626 M⁻¹ s⁻¹,,,,"1,110 M^-1s^-1",
Ac-[hArg][dV][Phe(F5)]R-{ACC} (SMILES CC(=O)N[C@@H](CCCCNC(=N)N)C(=O)N[C@@H](C(=O)N[C@@H](Cc1c(F)c(F)c(F)c(F)c1F)C(=O)N[C@@H](CCCNC(=N)N)C(=O)Nc1ccc2c(CC(N)=O)cc(=O)oc2c1)C(C)C),"454,800 M^-1s^-1",,,,647 M⁻¹ s⁻¹,,,,242 M⁻¹ s⁻¹,,,,96 M⁻¹ s⁻¹,,,,< 10 M⁻¹ s⁻¹,
Ac-H[dV][Phe(F5)]C(Meb)-{ACC} (SMILES CC(=O)N[C@@H](Cc1c[nH]cn1)C(=O)N[C@@H](C(=O)N[C@@H](Cc1c(F)c(F)c(F)c(F)c1F)C(=O)N[C@@H](CSCc1ccc(C)cc1)C(=O)Nc1ccc2c(CC(N)=O)cc(=O)oc2c1)C(C)C),"1,476,000 M^-1s^-1",,,,"1,740 M^-1s^-1",,,,"2,290 M^-1s^-1",,,,< 10 M⁻¹ s⁻¹,,,,< 10 M⁻¹ s⁻¹,
Ac-H[dT][Phe(F5)]R-{ACC} (SMILES CC(=O)N[C@@H](Cc1c[nH]cn1)C(=O)N[C@@H](C(=O)N[C@@H](Cc1c(F)c(F)c(F)c(F)c1F)C(=O)N[C@@H](CCCNC(=N)N)C(=O)Nc1ccc2c(CC(N)=O)cc(=O)oc2c1)[C@H](C)O),"729,200 M^-1s^-1",38.6 s⁻¹,,53.1 µM,286 M⁻¹ s⁻¹,0.0178 s⁻¹,286 M⁻¹ s⁻¹,61.4 µM,94 M⁻¹ s⁻¹,0.00673 s⁻¹,94 M⁻¹ s⁻¹,71.5 µM,< 10 M⁻¹ s⁻¹,,< 10 M⁻¹ s⁻¹,,< 10 M⁻¹ s⁻¹,< 10 M⁻¹ s⁻¹
Ac-H[dV][Phe(F5)]C(Mob)-{ACC} (SMILES COc1ccc(CSC[C@H](NC(=O)[C@H](Cc2c(F)c(F)c(F)c(F)c2F)NC(=O)[C@H](NC(=O)[C@H](Cc2c[nH]cn2)NC(C)=O)C(C)C)C(=O)Nc2ccc3c(CC(N)=O)cc(=O)oc3c2)cc1),"2,135,000 M^-1s^-1",,,,"2,070 M^-1s^-1",,,,"3,800 M^-1s^-1",,,,< 10 M⁻¹ s⁻¹,,,,< 10 M⁻¹ s⁻¹,
Ac-H[dV][Phe(2-Cl)]R-{ACC} (SMILES CC(=O)N[C@@H](Cc1c[nH]cn1)C(=O)N[C@@H](C(=O)N[C@@H](Cc1ccccc1Cl)C(=O)N[C@@H](CCCNC(=N)N)C(=O)Nc1ccc2c(CC(N)=O)cc(=O)oc2c1)C(C)C),"5,689,000 M^-1s^-1",,,,"11,600 M^-1s^-1",,,,"1,360 M^-1s^-1",,,,"13,000 M^-1s^-1",,,,"2,760 M^-1s^-1",
Ac-H[dV][Phe(F5)][hArg]-{ACC} (SMILES CC(=O)N[C@@H](Cc1c[nH]cn1)C(=O)N[C@@H](C(=O)N[C@@H](Cc1c(F)c(F)c(F)c(F)c1F)C(=O)N[C@@H](CCCCNC(=N)N)C(=O)Nc1ccc2c(CC(N)=O)cc(=O)oc2c1)C(C)C),"317,900 M^-1s^-1",,,,175 M⁻¹ s⁻¹,,,,187 M⁻¹ s⁻¹,,,,< 10 M⁻¹ s⁻¹,,,,< 10 M⁻¹ s⁻¹,
Ac-H[dK][Phe(F5)]R-{ACC} (SMILES CC(=O)N[C@@H](Cc1c[nH]cn1)C(=O)N[C@H](CCCCN)C(=O)N[C@@H](Cc1c(F)c(F)c(F)c(F)c1F)C(=O)N[C@@H](CCCNC(=N)N)C(=O)Nc1ccc2c(CC(N)=O)cc(=O)oc2c1),"715,000 M^-1s^-1",,,,"1,010 M^-1s^-1",,,,175 M⁻¹ s⁻¹,,,,29 M⁻¹ s⁻¹,,,,< 10 M⁻¹ s⁻¹,
Ac-H[dV][Phe(F5)]K(ClZ)-{ACC} (SMILES CC(=O)N[C@@H](Cc1c[nH]cn1)C(=O)N[C@@H](C(=O)N[C@@H](Cc1c(F)c(F)c(F)c(F)c1F)C(=O)N[C@@H](CCCCNC(=O)OCc1ccccc1Cl)C(=O)Nc1ccc2c(CC(N)=O)cc(=O)oc2c1)C(C)C),"686,700 M^-1s^-1",,,,329 M⁻¹ s⁻¹,,,,"1,320 M^-1s^-1",,,,361 M⁻¹ s⁻¹,,,,< 10 M⁻¹ s⁻¹,
Ac-H[dV][Phe(F5)]L-{ACC} (SMILES CC(=O)N[C@@H](Cc1c[nH]cn1)C(=O)N[C@@H](C(=O)N[C@@H](Cc1c(F)c(F)c(F)c(F)c1F)C(=O)N[C@@H](CC(C)C)C(=O)Nc1ccc2c(CC(N)=O)cc(=O)oc2c1)C(C)C),"135,600 M^-1s^-1",,,,325 M⁻¹ s⁻¹,,,,684 M⁻¹ s⁻¹,,,,646 M⁻¹ s⁻¹,,,,912 M⁻¹ s⁻¹,
Ac-His-DVal-Phe(F5)-Lys-ACC,"231,000 M^-1s^-1",,,,< 10 M⁻¹ s⁻¹,,,,< 10 M⁻¹ s⁻¹,,,,< 10 M⁻¹ s⁻¹,,,,< 10 M⁻¹ s⁻¹,
Ac-H[dL][Phe(F5)]R-{ACC} (SMILES CC(=O)N[C@@H](Cc1c[nH]cn1)C(=O)N[C@H](CC(C)C)C(=O)N[C@@H](Cc1c(F)c(F)c(F)c(F)c1F)C(=O)N[C@@H](CCCNC(=N)N)C(=O)Nc1ccc2c(CC(N)=O)cc(=O)oc2c1),"405,900 M^-1s^-1",,,,353 M⁻¹ s⁻¹,,,,135 M⁻¹ s⁻¹,,,,< 10 M⁻¹ s⁻¹,,,,< 10 M⁻¹ s⁻¹,
Ac-R[dV][Phe(F5)]R-{ACC} (SMILES CC(=O)N[C@@H](CCCNC(=N)N)C(=O)N[C@@H](C(=O)N[C@@H](Cc1c(F)c(F)c(F)c(F)c1F)C(=O)N[C@@H](CCCNC(=N)N)C(=O)Nc1ccc2c(CC(N)=O)cc(=O)oc2c1)C(C)C),"387,300 M^-1s^-1",,,,333 M⁻¹ s⁻¹,,,,101 M⁻¹ s⁻¹,,,,< 10 M⁻¹ s⁻¹,,,,< 10 M⁻¹ s⁻¹,
Ac-H[dV][Phe(3-F)]R-{ACC} (SMILES CC(=O)N[C@@H](Cc1c[nH]cn1)C(=O)N[C@@H](C(=O)N[C@@H](Cc1cccc(F)c1)C(=O)N[C@@H](CCCNC(=N)N)C(=O)Nc1ccc2c(CC(N)=O)cc(=O)oc2c1)C(C)C),"8,432,000 M^-1s^-1",,,,"12,600 M^-1s^-1",,,,"6,280 M^-1s^-1",,,,"5,700 M^-1s^-1",,,,814 M⁻¹ s⁻¹,
